Measurements reported in US20210254272A1, “TEXTILES HAVING ANTIMICROBIAL PROPERTIES” (Livinguard AG, priority 2015, published 2021).

Assay: Leaching test: 100 g fabric soaked in 10 liters stagnant distilled water, 3 days (72 hours)
Type: physicochemical
Details: for Leaching of active ingredients / Leaching Test-Leaching of active ingredients: pad process; for Leaching of active ingredients: cured 180° C. 2 min; for Leaching Test-Leaching of active ingredients: 2 min
Experimental: (§1) The test procedure for leaching was as follows: 100 g (grams) of fabric as well as control fabrics were soaked in 10 liters of stagnant distilled water in a closed wide mouth jar. After 3 days (72 hours), the water samples were tested for leached substances as per standard analytical methods.
as §1, with “methods. A weight of 100 g fabric was chosen because in the preferred embodiment of the water filter as described further below, each filter comprises a strip of fabric with 210 g/m^2, 3 meters long and 0.16 meters wide, which corresponds to 100 g of fabric.” for “methods.”

Substance: Silver
- Leaching of active ingredients (in ppm) (exhaust 80° C., 60 min, dosage 1% o.w.f (test up to 5% o.w.f)): 3.5 ppm
- Leaching of active ingredients (in ppm) (exhaust 80° C., 60 min, dosage 2% o.w.f): 19 ppm
- Leaching of active ingredients (in ppm) (exhaust 80° C., 60 min, dosage 3% o.w.f): 36 ppm
- Leaching of active ingredients (in ppm) (exhaust 80° C., 60 min, dosage 4% o.w.f): 41 ppm
- Leaching of active ingredients (in ppm) (exhaust 80° C., 60 min, dosage 5% o.w.f): 69 ppm
- Leaching of active ingredients (in ppm) (exhaust 80 ° C., solution dosage 1% o.w.f, process time 10 min): 50 ppm
- Leaching of active ingredients (in ppm) (exhaust 80 ° C., solution dosage 1% o.w.f, process time 20 min): 37 ppm
- Leaching of active ingredients (in ppm) (exhaust 80 ° C., solution dosage 1% o.w.f, process time 30 min): 28 ppm
- Leaching of active ingredients (in ppm) (exhaust 80 ° C., solution dosage 1% o.w.f, process time 40 min): 22 ppm
- Leaching of active ingredients (in ppm) (exhaust 80 ° C., solution dosage 1% o.w.f, process time 50 min): 19 ppm
- Leaching of active ingredients (in ppm) (exhaust 80 ° C., solution dosage 1% o.w.f, process time 55 min): 8 ppm
- Leaching of active ingredients (in ppm) (exhaust 80 ° C., solution dosage 1% o.w.f, process time 60 min): 4 ppm
- Leaching of active ingredients (in ppm) (exhaust 80 ° C., solution dosage 1% o.w.f, process time 70 min): 4 ppm
- Leaching of active ingredients (in ppm) (exhaust 80 ° C., solution dosage 1% o.w.f, process time 80 min): 3 ppm
- Leaching of active ingredients (in ppm) (exhaust 80 ° C., solution dosage 1% o.w.f, process time 90 min): 8 ppm
- limit on the quantity of the agent that can be adhered to the textile in a non-leaching or substantially non-leaching manner (from Experimental examples I.1 and I.4): about 0.01 % o.w.f.
- Leaching of active ingredients (mixture 1 gm/lit each): 12 ppm
- Leaching of active ingredients (mixture 1 gm/lit each, after Washing): 0.4 ppm
- Leaching of active ingredients (mixture 5 gm/lit each): 28 ppm
- Leaching of active ingredients (mixture 5 gm/lit each, after Washing): 0.6 ppm
- Leaching of active ingredients (mixture 10 gm/lit each): 38 ppm
- Leaching of active ingredients (mixture 10 gm/lit each, after Washing): 1.0 ppm
- Leaching Test-Leaching of active ingredients (single agent 5 gm/lit, curing 120° C.): 9 ppm
- Leaching Test-Leaching of active ingredients (single agent 5 gm/lit, curing 140° C.): 5 ppm
- Leaching Test-Leaching of active ingredients (single agent 5 gm/lit, curing 150° C.): 3 ppm
- Leaching Test-Leaching of active ingredients (single agent 5 gm/lit, curing 160° C.): 2 ppm
- Leaching Test-Leaching of active ingredients (single agent 5 gm/lit, curing 180° C.): 1 ppm
- Leaching Test-Leaching of active ingredients (single agent 10 gm/lit, curing 120° C.): 16 ppm
- Leaching Test-Leaching of active ingredients (single agent 10 gm/lit, curing 140° C.): 15 ppm
- Leaching Test-Leaching of active ingredients (single agent 10 gm/lit, curing 150° C.): 12 ppm
- Leaching Test-Leaching of active ingredients (single agent 10 gm/lit, curing 160° C.): 9 ppm
- Leaching Test-Leaching of active ingredients (single agent 10 gm/lit, curing 180° C.): 2 ppm
- Leaching of active ingredient (in ppm) (solution dosage 0.10% o.w.f, exhaust temperature 40° C., process time 60 min): 0 ppm
- Leaching of active ingredient (in ppm) (solution dosage 0.10% o.w.f, exhaust temperature 60° C., process time 60 min): 0 ppm
- Leaching of active ingredient (in ppm) (solution dosage 0.10% o.w.f, exhaust temperature 65° C., process time 60 min): 0 ppm
- Leaching of active ingredient (in ppm) (solution dosage 0.10% o.w.f, exhaust temperature 70° C., process time 60 min): 0 ppm
- Leaching of active ingredient (in ppm) (solution dosage 0.10% o.w.f, exhaust temperature 75° C., process time 60 min): 0 ppm
- Leaching of active ingredient (in ppm) (solution dosage 0.10% o.w.f, exhaust temperature 80° C., process time 60 min): 0 ppm
- Leaching of active ingredient (in ppm) (solution dosage 0.10% o.w.f, exhaust temperature 85° C., process time 60 min): 2 ppm
- Leaching of active ingredient (in ppm) (solution dosage 0.10% o.w.f, exhaust temperature 90° C., process time 60 min): 2 ppm
- Leaching of active ingredient (in ppm) (solution dosage 0.10% o.w.f, exhaust temperature 95° C., process time 60 min): 2 ppm
- Leaching of active ingredient (in ppm) (solution dosage 0.20% o.w.f, exhaust temperature 40° C., process time 60 min): 0 ppm
- Leaching of active ingredient (in ppm) (solution dosage 0.20% o.w.f, exhaust temperature 60° C., process time 60 min): 0 ppm
- Leaching of active ingredient (in ppm) (solution dosage 0.20% o.w.f, exhaust temperature 65° C., process time 60 min): 0 ppm
- Leaching of active ingredient (in ppm) (solution dosage 0.20% o.w.f, exhaust temperature 70° C., process time 60 min): 0 ppm
- Leaching of active ingredient (in ppm) (solution dosage 0.20% o.w.f, exhaust temperature 75° C., process time 60 min): 0 ppm
- Leaching of active ingredient (in ppm) (solution dosage 0.20% o.w.f, exhaust temperature 80° C., process time 60 min): 0 ppm
- Leaching of active ingredient (in ppm) (solution dosage 0.20% o.w.f, exhaust temperature 85° C., process time 60 min): 4 ppm
- Leaching of active ingredient (in ppm) (solution dosage 0.20% o.w.f, exhaust temperature 90° C., process time 60 min): 4 ppm
- Leaching of active ingredient (in ppm) (solution dosage 0.20% o.w.f, exhaust temperature 95° C., process time 60 min): 4 ppm
- Leaching of active ingredient (in ppm) (solution dosage 0.50% o.w.f, exhaust temperature 40° C., process time 60 min): 0 ppm
- Leaching of active ingredient (in ppm) (solution dosage 0.50% o.w.f, exhaust temperature 60° C., process time 60 min): 3 ppm
- Leaching of active ingredient (in ppm) (solution dosage 0.50% o.w.f, exhaust temperature 65° C., process time 60 min): 2 ppm
- Leaching of active ingredient (in ppm) (solution dosage 0.50% o.w.f, exhaust temperature 70° C., process time 60 min): 1 ppm
- Leaching of active ingredient (in ppm) (solution dosage 0.50% o.w.f, exhaust temperature 75° C., process time 60 min): 1 ppm
- Leaching of active ingredient (in ppm) (solution dosage 0.50% o.w.f, exhaust temperature 80° C., process time 60 min): 1 ppm
- Leaching of active ingredient (in ppm) (solution dosage 0.50% o.w.f, exhaust temperature 85° C., process time 60 min): 5 ppm
- Leaching of active ingredient (in ppm) (solution dosage 0.50% o.w.f, exhaust temperature 90° C., process time 60 min): 7 ppm
- Leaching of active ingredient (in ppm) (solution dosage 0.50% o.w.f, exhaust temperature 95° C., process time 60 min): 8 ppm
- Leaching of active ingredient (in ppm) (solution dosage 0.80% o.w.f, exhaust temperature 40° C., process time 60 min): 0 ppm
- Leaching of active ingredient (in ppm) (solution dosage 0.80% o.w.f, exhaust temperature 60° C., process time 60 min): 4 ppm
- Leaching of active ingredient (in ppm) (solution dosage 0.80% o.w.f, exhaust temperature 65° C., process time 60 min): 3 ppm
- Leaching of active ingredient (in ppm) (solution dosage 0.80% o.w.f, exhaust temperature 70° C., process time 60 min): 2 ppm
- Leaching of active ingredient (in ppm) (solution dosage 0.80% o.w.f, exhaust temperature 75° C., process time 60 min): 3 ppm
- Leaching of active ingredient (in ppm) (solution dosage 0.80% o.w.f, exhaust temperature 80° C., process time 60 min): 1 ppm
- Leaching of active ingredient (in ppm) (solution dosage 0.80% o.w.f, exhaust temperature 85° C., process time 60 min): 7 ppm
- Leaching of active ingredient (in ppm) (solution dosage 0.80% o.w.f, exhaust temperature 90° C., process time 60 min): 7 ppm
- Leaching of active ingredient (in ppm) (solution dosage 0.80% o.w.f, exhaust temperature 95° C., process time 60 min): 8 ppm
- Leaching of active ingredient (in ppm) (solution dosage 1.00% o.w.f, exhaust temperature 40° C., process time 60 min): 0 ppm
- Leaching of active ingredient (in ppm) (solution dosage 1.00% o.w.f, exhaust temperature 60° C., process time 60 min): 7 ppm
- Leaching of active ingredient (in ppm) (solution dosage 1.00% o.w.f, exhaust temperature 65° C., process time 60 min): 7 ppm
- Leaching of active ingredient (in ppm) (solution dosage 1.00% o.w.f, exhaust temperature 70° C., process time 60 min): 3 ppm
- Leaching of active ingredient (in ppm) (solution dosage 1.00% o.w.f, exhaust temperature 75° C., process time 60 min): 4 ppm
- Leaching of active ingredient (in ppm) (solution dosage 1.00% o.w.f, exhaust temperature 80° C., process time 60 min): 1 ppm
- Leaching of active ingredient (in ppm) (solution dosage 1.00% o.w.f, exhaust temperature 85° C., process time 60 min): 8 ppm
- Leaching of active ingredient (in ppm) (solution dosage 1.00% o.w.f, exhaust temperature 90° C., process time 60 min): 9 ppm
- Leaching of active ingredient (in ppm) (solution dosage 1.00% o.w.f, exhaust temperature 95° C., process time 60 min): 10 ppm
